Test results published in paper PMC8175851, “Effects of Genetic Polymorphism in CYP2D6, CYP2C19, and the Organic Cation Transporter OCT1 on Amitriptyline Pharmacokinetics in Healthy Volunteers and Depressive Disorder Patients” (Frontiers in Pharmacology, 2021).
Read-outs that look alike come from different tables or passages of the source.

Key:
OCT1 = biological target: T1, OCT1 (Homo sapiens, UniProt O15245); assay: in vitro
T1 construct: expressed in transfected cells
T1 sequence (O15245 1-554): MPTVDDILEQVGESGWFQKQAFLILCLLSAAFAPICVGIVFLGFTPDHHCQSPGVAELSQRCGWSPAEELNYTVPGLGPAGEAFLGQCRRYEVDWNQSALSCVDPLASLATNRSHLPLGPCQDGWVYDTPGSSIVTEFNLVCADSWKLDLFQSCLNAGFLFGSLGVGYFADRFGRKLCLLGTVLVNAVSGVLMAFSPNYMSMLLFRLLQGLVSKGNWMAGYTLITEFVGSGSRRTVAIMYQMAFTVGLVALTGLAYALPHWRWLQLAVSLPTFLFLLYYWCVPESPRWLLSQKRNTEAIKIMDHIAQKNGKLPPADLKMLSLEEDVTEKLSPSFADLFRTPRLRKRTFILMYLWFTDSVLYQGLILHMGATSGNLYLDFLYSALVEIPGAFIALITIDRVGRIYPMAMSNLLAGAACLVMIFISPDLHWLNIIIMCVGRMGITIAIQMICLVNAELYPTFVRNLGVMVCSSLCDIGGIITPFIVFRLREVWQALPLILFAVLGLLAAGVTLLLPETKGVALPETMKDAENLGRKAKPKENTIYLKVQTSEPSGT
Procedure: The inhibition of OCT1 by different psychotropic drugs was studied in transport experiments using HEK293 cells stably transfected with wild-type OCT1. The cells were generated by targeted chromosomal integration using the Flp-In system (Thermo Fisher Scientific, Darmstadt, Germany), as has been described in detail before ([Saadatmand et al., 2012]). The cells were cultured in Dulbecco’s Modified Eagle’s Medium supplemented with 10% foetal bovine serum, 100 U/ml penicillin, and 100 μg/ml streptomycin at 37°C, 5% CO2, and 95% relative humidity. Cells were kept in culture for no more than 30 passages. All buffers and reagents were purchased from Thermo Fisher Scientific (Darmstadt, Germany).
Approximately 48 h before the transport experiments, recombinant OCT1-expressing cells and empty vector-transfected control cells were seeded at a density of 4 × 10^5 cells/well in 12-well plates coated with poly-D-lysine and incubated as described above. On the day of the experiment, the cells were washed twice with prewarmed (37°C) Hank’s Balanced Salt Solution (HBSS). They were subsequently incubated for 3 min at 37°C with 1 µM of the fluorescent OCT1 substrate ASP^+ (4-(4-(dimethylamino)styryl)-N-methylpyridinium iodide) and increasing concentrations of the antidepressants in 500 µl HBSS. The reaction was stopped by adding 2 ml ice-cold HBSS. This was subsequently removed and the cells were lyzed in 500 µl radioimmunoprecipitation assay (RIPA) buffer for 10 min under shaking. The cell uptake of ASP^+ was quantified using a Tecan Ultra microplate reader (Tecan Group AG, Männedorf, Switzerland) at excitation wavelength 485 nm and emission wavelength 612 nm. The intracellular ASP^+ concentrations were normalised to the total amount of protein in the sample that was determined using the bicinchoninic acid assay ([Smith et al., 1985]). IC50 values were calculated using SigmaPlot 11 (Systat Software GmbH, Erkrath, Germany) and Prism 5 (GraphPad Software, San Diego, CA, United States).

[1] = Plasma concentrations per dose unit of AT and NT in depressive disorder patients (75 mg AT twice daily); assay type: in vivo, human; details: 12-hour-trough levels
Procedure: Briefly, 75 mg AT was administered twice daily at 12 h dosing intervals. Any drugs or dietary ingredients that might interfere with CYP2D6 or CYP2C19 metabolism were avoided whenever possible. Blood samples (12-hour-trough levels) were taken on days 0, 7, 14, 18, and 21, centrifuged, and stored at 4°C for genotyping (CYP2D6 and CYP2C19) and concentration analyses. The blood samples were subsequently stored at −20°C and later genotyped for OCT1.
The serum concentrations in depressive disorder patients were determined either by the Emit® immunoassay specific for AT and NT or a commercial high-performance liquid chromatography assay (Bio-Rad Laboratories GmbH, Feldkirchen, Germany), as described before ([Steimer et al., 2004]; [Steimer et al., 2005]).
The correlation between AT and NT plasma AUC (study in healthy volunteers) or mean plasma concentration per dose unit (study in depressive disorder patients) and OCT1, CYP2D6, and CYP2C19 genotypes were calculated using the Jonckheere-Terpstra non-parametric analysis, which takes into consideration the a priori ordering (or trend) in gene activities from zero to normal to ultra-rapid (for CYP2C19 and CYP2D6). To do so, the genotypes were categorized into 0, 1, or 2 active alleles for OCT1, into 0, 0.5, 1, 1.5, 2, 2.5, or 3 active alleles for CYP2D6, and into 0, 1, 1.5, 2, 2.5, or 3 active alleles for CYP2C19, depending on their known effects on transporter/enzyme activity. OCT1 alleles *2, *3, *4, *5 were classified as being zero active. […] A semi-quantitative gene dosage was calculated for CYP2D6, as has been described earlier ([Steimer et al., 2004]). For calculating a CYP2C19 activity score, CYP2C19*2 was regarded as zero active, CYP2C19*1 was classified as 1, and CYP2C19*17 as 1.5. Additional multiple linear regression analyses included sex, age, body mass index, and glomerular filtration rate.

[2] = OCT1 genotype *1 / *1 (n 27), mean ± standard deviation
[3] = OCT1 genotype *1 / *2 (n 14), mean ± standard deviation
[4] = OCT1 genotype *1 / *3 (n 2), mean ± standard deviation
[5] = OCT1 genotype *2 / *2 (n 3), mean ± standard deviation
[6] = OCT1 genotype *2 / *3 (n 2), mean ± standard deviation

Row | Compound | inhibition at 3 min, 2.69 µM (OCT1; human, HEK293 cells stably transfected with wild-type OCT1) | IC50 (OCT1; read-out: IC50 (OCT1 inhibition)) | Mean plasma concentration per dose unit [1, 2] | Mean plasma concentration per dose unit [1, 3] | Mean plasma concentration per dose unit [1, 4] | Mean plasma concentration per dose unit ([1]; OCT1 genotype *1 / *4 (n 1)) | Mean plasma concentration per dose unit [1, 5] | Mean plasma concentration per dose unit [1, 6] | Mean plasma concentration per dose unit ([1]; OCT1 genotype *3 / *3 (n 1)) | IC50 (OCT1; inhibition of uptake of 1 µM ASP+, 3 min, HEK293 cells with wild-type OCT1, mean)
1 | CN(C)CCC=C1c2ccccc2CCc2ccccc21 [Amitriptyline, amitriptyline] | 23% | 28.6 ± 18.9 µM | 37.3 ± 15.9 | 44.0 ± 15.2 | 56.9 ± 36.0 | 38.7 | 47.6 ± 15.4 | 52.6 ± 31.9 | 53.9 | –
2 | CNCCC=C1c2ccccc2CCc2ccccc21 [Nortriptyline, nortriptyline] | – | – | 34.0 ± 18.3 | 33.5 ± 14.6 | 34.6 ± 12.4 | 39.6 | 40.6 ± 26.7 | 28.0 ± 13.2 | 29.9 | 40.4 ± 16.2 µM
